Laboratory results published in US9206184B2, “Disubstituted benzothienyl-pyrrolotriazines and uses thereof” (BAYER INTELLECTUAL PROPERTY GmbH, priority 2011, dated 2015).
Counter-ions that a name gives are not always drawn.

Tests used:
[1] = biological target: human mTOR (Homo sapiens (Human), UniProt P42345); assay: mTOR kinase assay (TR-FRET, for comparative purposes); type: biochemical; conditions: mean inhibition at 1 μM test compound; 40 μM ATP
[2] = biological target: human FGFR-3 (Homo sapiens (Human), UniProt P22607); assay: FGFR-3 kinase assay (TR-FRET); type: biochemical; conditions: 10 μM ATP, 15 min pre-incubation with enzyme, compounds of the invention
Chain of human FGFR-3 (P22607 397-806): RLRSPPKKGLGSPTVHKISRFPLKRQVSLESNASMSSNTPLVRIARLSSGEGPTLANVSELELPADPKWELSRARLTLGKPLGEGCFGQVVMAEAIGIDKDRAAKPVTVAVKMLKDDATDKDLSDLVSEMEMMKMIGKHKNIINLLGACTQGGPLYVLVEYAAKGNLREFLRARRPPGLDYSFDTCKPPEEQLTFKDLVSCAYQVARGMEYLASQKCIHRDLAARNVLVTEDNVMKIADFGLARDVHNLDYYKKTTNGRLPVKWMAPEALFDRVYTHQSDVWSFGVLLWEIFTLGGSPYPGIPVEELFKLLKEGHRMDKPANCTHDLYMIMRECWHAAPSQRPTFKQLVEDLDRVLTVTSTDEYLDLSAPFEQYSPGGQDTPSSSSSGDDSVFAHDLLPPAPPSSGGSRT

[3] = system: Human umbilical vein endothelial cells (HUVEC); assay: Inhibition of growth factor-mediated cell proliferation (hFGF-2, HUVEC); type: cell-based; conditions: 72 h, read-out: hFGF-2 mediated HUVEC proliferation, IC50 [nM]
[4] = biological target: human FGFR-1 (Homo sapiens, UniProt P11362); assay: FGFR-1 high ATP kinase assay (TR-FRET); type: biochemical; conditions: 2 mM ATP; 15 min pre-incubation with enzyme; compounds of the invention
Chain of human FGFR-1 (P11362 22-822 limits assumed): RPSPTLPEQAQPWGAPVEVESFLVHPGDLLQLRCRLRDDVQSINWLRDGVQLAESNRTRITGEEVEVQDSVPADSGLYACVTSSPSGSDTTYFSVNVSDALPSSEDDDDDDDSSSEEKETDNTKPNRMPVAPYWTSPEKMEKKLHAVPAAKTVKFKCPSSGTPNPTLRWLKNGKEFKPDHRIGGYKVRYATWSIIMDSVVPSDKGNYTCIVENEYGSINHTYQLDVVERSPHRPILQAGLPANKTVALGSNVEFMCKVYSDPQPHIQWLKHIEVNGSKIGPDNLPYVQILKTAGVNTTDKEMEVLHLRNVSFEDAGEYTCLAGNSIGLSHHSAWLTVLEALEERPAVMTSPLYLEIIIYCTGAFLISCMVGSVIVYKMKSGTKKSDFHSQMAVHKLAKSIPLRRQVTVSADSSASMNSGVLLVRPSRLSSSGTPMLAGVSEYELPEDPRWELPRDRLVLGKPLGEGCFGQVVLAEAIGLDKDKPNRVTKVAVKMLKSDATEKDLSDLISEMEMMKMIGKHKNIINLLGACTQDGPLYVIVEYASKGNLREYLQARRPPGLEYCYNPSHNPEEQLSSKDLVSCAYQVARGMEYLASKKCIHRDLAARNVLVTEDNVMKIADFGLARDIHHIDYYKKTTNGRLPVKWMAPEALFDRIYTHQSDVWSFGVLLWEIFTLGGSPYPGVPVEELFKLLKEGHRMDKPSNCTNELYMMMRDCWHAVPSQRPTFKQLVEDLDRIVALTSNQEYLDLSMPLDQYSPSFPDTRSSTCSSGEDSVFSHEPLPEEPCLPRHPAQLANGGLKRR

Chain of human mTOR (P42345 1360-2549): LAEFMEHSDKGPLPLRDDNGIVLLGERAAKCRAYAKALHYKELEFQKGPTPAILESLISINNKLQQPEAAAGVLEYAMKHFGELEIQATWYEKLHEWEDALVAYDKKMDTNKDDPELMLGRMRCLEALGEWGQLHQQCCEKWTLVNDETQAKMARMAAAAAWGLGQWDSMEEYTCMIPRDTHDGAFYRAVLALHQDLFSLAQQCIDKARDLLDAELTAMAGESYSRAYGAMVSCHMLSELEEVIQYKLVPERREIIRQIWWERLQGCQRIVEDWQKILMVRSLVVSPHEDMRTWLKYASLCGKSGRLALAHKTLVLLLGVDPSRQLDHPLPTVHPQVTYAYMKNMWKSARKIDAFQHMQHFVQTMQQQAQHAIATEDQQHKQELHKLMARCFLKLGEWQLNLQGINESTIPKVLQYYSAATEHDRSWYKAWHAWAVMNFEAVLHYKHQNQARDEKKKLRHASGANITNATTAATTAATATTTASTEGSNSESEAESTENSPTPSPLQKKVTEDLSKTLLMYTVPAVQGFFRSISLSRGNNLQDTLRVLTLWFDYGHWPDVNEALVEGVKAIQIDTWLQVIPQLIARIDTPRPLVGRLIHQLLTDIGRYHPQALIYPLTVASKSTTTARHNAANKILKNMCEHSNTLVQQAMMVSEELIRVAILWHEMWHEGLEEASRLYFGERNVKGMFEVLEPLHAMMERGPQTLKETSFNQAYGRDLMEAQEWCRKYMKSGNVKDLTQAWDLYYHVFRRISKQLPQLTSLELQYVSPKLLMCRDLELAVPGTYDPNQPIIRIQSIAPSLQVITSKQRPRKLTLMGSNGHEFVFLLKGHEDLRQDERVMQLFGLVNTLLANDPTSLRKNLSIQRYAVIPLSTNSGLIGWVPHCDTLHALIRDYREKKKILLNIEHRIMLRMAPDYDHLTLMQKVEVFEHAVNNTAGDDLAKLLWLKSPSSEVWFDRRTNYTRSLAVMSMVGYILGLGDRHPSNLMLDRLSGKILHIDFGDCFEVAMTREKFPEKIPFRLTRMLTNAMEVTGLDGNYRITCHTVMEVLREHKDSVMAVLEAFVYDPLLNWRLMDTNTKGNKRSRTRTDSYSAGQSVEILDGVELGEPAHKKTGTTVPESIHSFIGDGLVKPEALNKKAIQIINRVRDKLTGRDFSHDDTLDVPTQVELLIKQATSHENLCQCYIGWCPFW

Row | SMILES | mTOR inhibition @ 1 μM [1] | IC50 [2] [nM] | IC50 ([2]; dihydrochloride) [nM] | IC50 [3] [nM] | IC50 [4] [nM]
1 | COc1cc(C)cc2cc(-c3c(CN4CCC(O)C4)c(CN4CCNCC4)n4ncnc(N)c34)sc12 (racemic) [Example 42, rac-1-{[4-Amino-5-(7-methoxy-5-methyl-1-benzothiophen-2-yl)-7-(piperazin-1-ylmethyl)pyrrolo-[2,1-f][1,2,4]triazin-6-yl]methyl}pyrrolidin-3-ol trihydrochloride] | no inhib. effect detect. | 18.4 | – | – | –
2 | CCOCc1c(-c2cc3cc(C)cc(OC)c3s2)c2c(N)ncnn2c1CN1CCN(C(C)=O)CC1 [Example 11, 1-(4-{[4-Amino-6-(ethoxymethyl)-5-(7-methoxy-5-methyl-1-benzothiophen-2-yl)pyrrolo[2,1-f]-[1,2,4]triazin-7-yl]methyl}piperazin-1-yl)ethanone dihydrochloride] | – | – | 13 | 150 | –
3 | COCc1c(-c2cc3cc(C)cc(OC)c3s2)c2c(N)ncnn2c1CN1CC[C@](C)(N)C1 [Example 14, 7-{[(3S)-3-Amino-3-methylpyrrolidin-1-yl]methyl}-6-(methoxymethyl)-5-(7-methoxy-5-methyl-1-benzothiophen-2-yl)pyrrolo[2,1-f][1,2,4]triazin-4-amine trihydrochloride] | – | – | – | 25 | 1.4
4 | COCc1c(-c2cc3cc(C)cc(OC)c3s2)c2c(N)ncnn2c1CN1CCN(C(C)=O)CC1 [Example 16, 1-(4-{[4-Amino-6-(methoxymethyl)-5-(7-methoxy-5-methyl-1-benzothiophen-2-yl)pyrrolo[2,1-f]-[1,2,4]triazin-7-yl]methyl}piperazin-1-yl)ethanone dihydrochloride] | – | – | – | 117 | –
5 | COCCOCc1c(-c2cc3cc(C)cc(OC)c3s2)c2c(N)ncnn2c1CN1CCNCC1 [Example 28, 6-[(2-Methoxyethoxy)methyl]-5-(7-methoxy-5-methyl-1-benzothiophen-2-yl)-7-(piperazin-1-ylmethyl)pyrrolo[2,1-f][1,2,4]triazin-4-amine formiate] | no inhib. effect detect. | 9.7 | – | – | 2.1
6 | CCNCc1c(-c2cc3cc(C)cc(OC)c3s2)c2c(N)ncnn2c1CN1CCNCC1 [Example 38, 6-[(Ethylamino)methyl]-5-(7-methoxy-5-methyl-1-benzothiophen-2-yl)-7-(piperazin-1-ylmethyl)pyrrolo[2,1-f][1,2,4]triazin-4-amine trihydrochloride] | – | – | – | 213 | –
7 | COc1cc(C)cc2cc(-c3c(CNCCO)c(CN4CCNCC4)n4ncnc(N)c34)sc12 [Example 39, 2-({[4-Amino-5-(7-methoxy-5-methyl-1-benzothiophen-2-yl)-7-(piperazin-1-ylmethyl)pyrrolo-[2,1-f][1,2,4]triazin-6-yl]methyl}amino)ethanol trihydrochloride] | – | – | – | 365 | –
8 | COc1cc(C)cc2cc(-c3c(CN4CCC(O)CC4)c(CN4CCNCC4)n4ncnc(N)c34)sc12 [Example 41, 1-{[4-Amino-5-(7-methoxy-5-methyl-1-benzothiophen-2-yl)-7-(piperazin-1-ylmethyl)pyrrolo-[2,1-f][1,2,4]triazin-6-yl]methyl}piperidin-4-ol trihydrochloride] | no inhib. effect detect. | 7.2 | – | – | 2.8
9 | COc1cc(C)cc2cc(-c3c(CN4CCCC4)c(CN4CCNCC4)n4ncnc(N)c34)sc12 [Example 45, 5-(7-Methoxy-5-methyl-1-benzothiophen-2-yl)-7-(piperazin-1-ylmethyl)-6-(pyrrolidin-1-ylmethyl)pyrrolo[2,1-f][1,2,4]triazin-4-amine trihydrochloride] | – | – | – | 171 | –
10 | COc1cc(C)cc2cc(-c3c(CNC4CC4)c(CN4CCNCC4)n4ncnc(N)c34)sc12 [Example 46, 6-[(Cyclopropylamino)methyl]-5-(7-methoxy-5-methyl-1-benzothiophen-2-yl)-7-(piperazin-1-ylmethyl)pyrrolo[2,1-f][1,2,4]triazin-4-amine trihydrochloride] | – | – | – | 84.5 | –
11 | COc1cc(C)cc2cc(-c3c(CNCC(=O)O)c(CN4CCNCC4)n4ncnc(N)c34)sc12 [Example 48, N-{[4-Amino-5-(7-methoxy-5-methyl-1-benzothiophen-2-yl)-7-(piperazin-1-ylmethyl)pyrrolo-[2,1-f][1,2,4]triazin-6-yl]methyl}glycine trihydrochloride] | – | 45.4 | – | 360 | –
12 | COc1cc(C)cc2cc(-c3c(CNC(C)=O)c(CN4CCNCC4)n4ncnc(N)c34)sc12 [Example 64, N-{[4-Amino-5-(7-methoxy-5-methyl-1-benzothiophen-2-yl)-7-(piperazin-1-ylmethyl)pyrrolo-[2,1-f][1,2,4]triazin-6-yl]methyl}acetamide dihydrochloride] | – | – | – | 4.5 | –
13 | COCc1c(-c2cc3cc(C)ccc3s2)c2c(N)ncnn2c1CN1CCNC(=O)C1 [Example 89, 4-{[4-Amino-6-(methoxymethyl)-5-(5-methyl-1-benzothiophen-2-yl)pyrrolo[2,1-f][1,2,4]triazin-7-yl]methyl}piperazin-2-one] | no inhib. effect detect. | – | – | – | 82.9
14 | CCOCc1c(-c2cc3cc(C)cc(OC)c3s2)c2c(N)ncnn2c1CN1CCC(O)CC1 [Example 98] | no inhib. effect detect. | – | – | – | 17
15 | CCOCc1c(-c2cc3cc(C)cc(OC)c3s2)c2c(N)ncnn2c1C(=O)N1CCNC(=O)C1 [Example 107, 4-{[4-Amino-6-(ethoxymethyl)-5-(7-methoxy-5-methyl-1-benzothiophen-2-yl)pyrrolo[2,1-f]-[1,2,4]triazin-7-yl]carbonyl}piperazin-2-one] | no inhib. effect detect. | 17.4 | – | – | 9.4
16 | CCOCc1c(-c2cc3cc(C)cc(OC)c3s2)c2c(N)ncnn2c1C(=O)N1CCS(=O)(=O)C1 [Example 119] | no inhib. effect detect. | 4.5 | – | – | 9
17 | CCOCc1c(-c2cc3cc(C)cc(OC)c3s2)c2c(N)ncnn2c1C(=O)N1CCC(O)CC1 [Example 121] | no inhib. effect detect. | 24.6 | – | – | 8.2
